Data published in ChEMBL document CHEMBL1177695, “Discovery and development of natural product-derived chemotherapeutic agents based on a medicinal chemistry approach” (J Nat Prod, 2010).
In brackets after ≈: the same amount, converted by molar mass. Blank lines part the entries; values can stand above or below the molecule they belong to.

Key:
ZR-75-1 = experiment: Cytotoxicity against human ZR-75-1 cells after 72 hrs by sulforhodamine B assay; assay type: functional; details: ZR-75-1, 72 h, read-out: ED50 (the source's name)
MDA-MB-231 = experiment: Cytotoxicity against human MDA-MB-231 cells after 72 hrs by sulforhodamine B assay; assay type: functional; details: MDA-MB-231, 72 h, read-out: ED50 (the source's name)
MCF7 = experiment: Cytotoxicity against human MCF7 cells after 72 hrs by sulforhodamine B assay; assay type: functional; details: MCF7, 72 h, read-out: ED50 (the source's name)
SK-BR-3 = experiment: Cytotoxicity against human SK-BR-3 cells after 72 hrs by sulforhodamine B assay; assay type: functional; details: SK-BR-3, 72 h, read-out: ED50 (the source's name)
[1] = tested on: Human immunodeficiency virus 1; experiment: Antiviral activity against HIV1 infected in human CEM-SS cells assessed as inhibition of viral replication; assay type: functional, organism-based; details: Human immunodeficiency virus 1, CEM-SS
[2] = Antitumor activity against rat Walker 256 cells allografted in rat at 2.5 mg/kg relative to control; assay type: functional
[3] = tested on: Human immunodeficiency virus 1; experiment: Antiviral activity against HIV1 3B infected in H9 cells assessed as inhibition of viral replication by p24 antigen ELISA; assay type: functional, organism-based; details: Human immunodeficiency virus 1, 3B, H9; read-out: EC50
[4] = Oral bioavailability in rat; assay type: ADME, organism-based; details: in vivo
[5] = Therapeutic index, ratio of IC50 for human H9 cells to EC50 for HIV 3B; assay type: cell-based; details: read-out: TI
HUVEC = experiment: Cytotoxicity against HUVEC after 3 days by sulforhodamine B assay; assay type: cell-based; details: Homo sapiens, 72 h
[6] = Cytotoxicity against human KBVIN cells after 3 days by sulforhodamine B assay; assay type: functional, cell-based; details: 72 h
KB [7] = experiment: Cytotoxicity against human KB cells after 3 days by sulforhodamine B assay; assay type: functional, cell-based; details: 72 h
HCT-8 = experiment: Cytotoxicity against human HCT8 cells after 3 days by sulforhodamine B assay; assay type: functional, cell-based; details: HCT-8, 72 h
PC-3 = experiment: Cytotoxicity against human PC3 cells after 3 days by sulforhodamine B assay; assay type: functional, cell-based; details: PC-3, 72 h
1A9 = experiment: Cytotoxicity against human 1A9 cells after 3 days by sulforhodamine B assay; assay type: functional, cell-based; details: 1A9, 72 h
A549 [8] = experiment: Cytotoxicity against human A549 cells after 3 days by sulforhodamine B assay; assay type: functional, cell-based; details: A549, 72 h
A-431 = experiment: Cytotoxicity against human A431 cells after 3 days by sulforhodamine B assay; assay type: functional, cell-based; details: A-431, 72 h
[9] = Growth inhibition of human renal cancer cells; assay type: functional; details: Cancer cell lines
[10] = Growth inhibition of human melanoma cells; assay type: functional; details: Melanoma cell
[11] = Growth inhibition of human leukemia cells; assay type: functional; details: Leukemia cell
[12] = Growth inhibition of human CNS cancer cells; assay type: functional; details: Cancer cell lines
[13] = Growth inhibition of human colon cancer cells; assay type: functional; details: Cancer cell lines
[14] = Growth inhibition of human ovarian cancer cells; assay type: functional; details: Cancer cell lines
[15] = Growth inhibition of human lung cancer cells; assay type: functional; details: Cancer cell lines
[16] = Inhibition of tubulin polymerization
[17] = Cytotoxicity against vincristine-resistant human KB/VCR cells overexpressing P-glycoprotein; assay type: functional, cell-based
KB [18] = experiment: Cytotoxicity against CPT-resistant human KB cells […] reduced level of topoisomerase; assay type: functional, cell-based
KB [19] = experiment: Cytotoxicity against human KB cells; assay type: functional, cell-based
[20] = Cytotoxicity against human KB-7d cells expressing multidrug-resistant protein; assay type: functional, cell-based; details: KB7D
KB [21] = experiment: Selectivity ratio of EC50 for human KB cells to EC50 for vincristine-resistant human KB cells; assay type: functional
A549 [22] = experiment: Cytotoxicity against human A549 cells; assay type: functional, cell-based; details: a549
melanoma (human) = experiment: Growth inhibition of human melanoma cells; details: Melanoma tumor cell line

Compound: CCCc1cccc2c1ccc1c3occ(C)c3c(=O)oc21
EC50 (ZR-75-1): 0.3 µg/mL (≈ 1.03 µM)
EC50 (MDA-MB-231): > 10 µg/mL
EC50 (MCF7): 1.2 µg/mL (≈ 4.1 µM)
EC50 (SK-BR-3): 0.1 µg/mL (≈ 0.342 µM)

EC50 [1]: 64 nM
Compound: Cc1cc(=S)oc2c3c(ccc12)OC(C)(C)[C@H](OC(=O)C12CCC(C)(C(=O)O1)C2(C)C)[C@@H]3OC(=O)C12CCC(C)(C(=O)O1)C2(C)C (some centres undefined)

Compound: C=C1C(=O)O[C@H]2[C@H]1[C@@H](OC(=O)/C(C)=C/C)C/C(C)=C/C(=O)/C=C(/C)[C@@H]2O [MOLEPHANTININ]
T/C [2]: 397%

EC50 [3]: 4.2 nM
bioavailability [4]: 15%
Compound: Cc1c(CO)c(=O)oc2c3c(ccc12)OC(C)(C)[C@H](OC(=O)C12CCC(C)(C(=O)O1)C2(C)C)[C@@H]3OC(=O)C12CCC(C)(C(=O)O1)C2(C)C (some centres undefined)
selectivity ratio [5]: 6000

Compound: CCCC1=C(OC)C(CCC)(CCC)C(=O)/C(=C(O)\C=C\c2ccc(Br)cc2)C1=O
EC50 (HUVEC): 0.9 µg/mL (≈ 1.89 µM)
EC50 [6]: 0.9 µg/mL (≈ 1.89 µM)
EC50 (KB [7]): 0.9 µg/mL (≈ 1.89 µM)
EC50 (HCT-8): 0.9 µg/mL (≈ 1.89 µM)
EC50 (PC-3): 0.9 µg/mL (≈ 1.89 µM)
EC50 (1A9): 0.9 µg/mL (≈ 1.89 µM)
EC50 (A549 [8]): 0.9 µg/mL (≈ 1.89 µM)
EC50 (A-431): 0.9 µg/mL (≈ 1.89 µM)

Compound: COC(=O)[C@]12OC[C@]34[C@H]([C@@H](O)[C@@H]1O)[C@@]1(C)CC(=O)C(O)=C(C)[C@@H]1C[C@H]3OC(=O)[C@H](OC(=O)/C=C(/C)C(F)(F)F)[C@@H]24
GI50 [9]: 100 nM
GI50 [10]: 100 nM
GI50 [11]: 100 nM
GI50 [12]: 100 nM
GI50 [13]: 100 nM
GI50 [14]: 100 nM
GI50 [15]: 100 nM

IC50 [16]: 2000 nM
Compound: COc1ccc2c(c1)C(O)CCc1cc(OC)c(OC)c(OC)c1-2 (centres undefined)
EC50 [17]: 0.013 µg/mL (≈ 0.0393 µM)
EC50 (KB [18]): 0.022 µg/mL (≈ 0.0666 µM)
EC50 (KB [19]): 0.02 µg/mL (≈ 0.0605 µM)
EC50 [20]: 0.013 µg/mL (≈ 0.0393 µM)

Compound: CCC1=C(O)c2c(oc(-c3ccc(CC)cc3)cc2=O)C(CC)(CC)C1=O [6,8,8-TRIETHYL-4-ETHYL DESMOSDUMOTIN B]
EC50 [6]: 0.025 µg/mL (≈ 0.0682 µM)
Ratio EC50 (KB [21]): 320

Compound: C=C(C)C(=O)O[C@H]1C/C(C)=C\[C@@]2(OCC)C=C(C)[C@H](O2)[C@H]2OC(=O)C(=C)[C@@H]21 [PHANTOMOLIN]
T/C [2]: 378%

IC50 [16]: 1000 nM
Compound: COc1ccc2c(c1)C(=O)CCc1cc(OC)c(OC)c(OC)c1-2
EC50 [17]: > 0.063 µg/mL
EC50 (KB [18]): 0.052 µg/mL (≈ 0.158 µM)
EC50 (KB [19]): 0.057 µg/mL (≈ 0.174 µM)
EC50 [20]: 0.025 µg/mL (≈ 0.0761 µM)

Compound: COc1ccc2c(CNCCCCCCO)cc3cc4c(cc3c2c1)OCO4
IC50 (A549 [22]): 160 nM

IC50 [16]: 1000 nM
Compound: COc1ccc2c(c1)c(=O)ccc1cc(OC)c(OC)c(OC)c12
EC50 [17]: 0.016 µg/mL (≈ 0.049 µM)
EC50 (KB [18]): 0.042 µg/mL (≈ 0.129 µM)
EC50 (KB [19]): 0.029 µg/mL (≈ 0.0889 µM)
EC50 [20]: 0.024 µg/mL (≈ 0.0735 µM)

GI50 (melanoma (human)): 18.2 nM
Compound: O=C1c2ccsc2C(=O)c2sc(CO)cc21
